Where two headings read alike, the source gives them in different places.

The target in one test is human TLR8 (Homo sapiens (Human), UniProt Q9NR97). Briefly: TLR8 inhibition reporter assay (HEK-Blue cells, SEAP reporter, R848 stimulation).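 Also: compounds tested from 0.05 nM to 50 µM, 22 h at 37 °C, SEAP measured with HEK-Blue Detection, inhibition relative to agonist plus DMSO versus a known inhibitor.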 On the technique in general: A reporter such as luciferase makes a cellular process visible.
Chain of human TLR8 (Q9NR97 27-1041): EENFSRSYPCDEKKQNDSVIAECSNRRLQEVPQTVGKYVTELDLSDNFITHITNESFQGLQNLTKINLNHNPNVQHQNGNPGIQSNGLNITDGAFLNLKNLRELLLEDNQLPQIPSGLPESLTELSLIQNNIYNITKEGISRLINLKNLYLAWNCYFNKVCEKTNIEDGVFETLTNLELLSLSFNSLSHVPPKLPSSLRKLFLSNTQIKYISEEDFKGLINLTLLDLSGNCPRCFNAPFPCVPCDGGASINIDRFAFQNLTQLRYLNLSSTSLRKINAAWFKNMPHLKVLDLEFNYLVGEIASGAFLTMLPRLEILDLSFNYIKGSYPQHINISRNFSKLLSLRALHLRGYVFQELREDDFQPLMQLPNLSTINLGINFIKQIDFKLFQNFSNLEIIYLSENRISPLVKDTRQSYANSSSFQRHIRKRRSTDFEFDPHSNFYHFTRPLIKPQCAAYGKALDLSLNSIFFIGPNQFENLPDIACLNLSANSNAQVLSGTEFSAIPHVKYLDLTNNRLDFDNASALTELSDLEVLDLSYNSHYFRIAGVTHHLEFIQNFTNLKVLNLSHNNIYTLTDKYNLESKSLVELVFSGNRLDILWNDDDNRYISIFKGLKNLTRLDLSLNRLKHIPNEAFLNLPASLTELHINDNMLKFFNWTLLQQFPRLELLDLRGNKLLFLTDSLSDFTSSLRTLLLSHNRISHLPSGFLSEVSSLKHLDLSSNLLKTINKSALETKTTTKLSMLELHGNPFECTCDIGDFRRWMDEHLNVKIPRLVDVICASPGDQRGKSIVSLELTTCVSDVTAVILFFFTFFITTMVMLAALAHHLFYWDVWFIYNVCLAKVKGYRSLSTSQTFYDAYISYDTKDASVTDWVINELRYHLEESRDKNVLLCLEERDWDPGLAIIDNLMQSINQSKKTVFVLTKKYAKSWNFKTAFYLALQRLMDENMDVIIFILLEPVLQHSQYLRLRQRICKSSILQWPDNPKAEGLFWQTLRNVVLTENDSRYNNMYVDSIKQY
The target in another test is human TLR7 (Homo sapiens (Human), UniProt Q9NYK1). In words: TLR7 inhibition reporter assay (HEK-Blue cells, SEAP reporter, gardiquimod stimulation). The format is cell-based. The note with it: HEK-Blue cells overexpressing human TLR7, gardiquimod 7.5 μM.
Chain of human TLR7 (Q9NYK1 27-1049): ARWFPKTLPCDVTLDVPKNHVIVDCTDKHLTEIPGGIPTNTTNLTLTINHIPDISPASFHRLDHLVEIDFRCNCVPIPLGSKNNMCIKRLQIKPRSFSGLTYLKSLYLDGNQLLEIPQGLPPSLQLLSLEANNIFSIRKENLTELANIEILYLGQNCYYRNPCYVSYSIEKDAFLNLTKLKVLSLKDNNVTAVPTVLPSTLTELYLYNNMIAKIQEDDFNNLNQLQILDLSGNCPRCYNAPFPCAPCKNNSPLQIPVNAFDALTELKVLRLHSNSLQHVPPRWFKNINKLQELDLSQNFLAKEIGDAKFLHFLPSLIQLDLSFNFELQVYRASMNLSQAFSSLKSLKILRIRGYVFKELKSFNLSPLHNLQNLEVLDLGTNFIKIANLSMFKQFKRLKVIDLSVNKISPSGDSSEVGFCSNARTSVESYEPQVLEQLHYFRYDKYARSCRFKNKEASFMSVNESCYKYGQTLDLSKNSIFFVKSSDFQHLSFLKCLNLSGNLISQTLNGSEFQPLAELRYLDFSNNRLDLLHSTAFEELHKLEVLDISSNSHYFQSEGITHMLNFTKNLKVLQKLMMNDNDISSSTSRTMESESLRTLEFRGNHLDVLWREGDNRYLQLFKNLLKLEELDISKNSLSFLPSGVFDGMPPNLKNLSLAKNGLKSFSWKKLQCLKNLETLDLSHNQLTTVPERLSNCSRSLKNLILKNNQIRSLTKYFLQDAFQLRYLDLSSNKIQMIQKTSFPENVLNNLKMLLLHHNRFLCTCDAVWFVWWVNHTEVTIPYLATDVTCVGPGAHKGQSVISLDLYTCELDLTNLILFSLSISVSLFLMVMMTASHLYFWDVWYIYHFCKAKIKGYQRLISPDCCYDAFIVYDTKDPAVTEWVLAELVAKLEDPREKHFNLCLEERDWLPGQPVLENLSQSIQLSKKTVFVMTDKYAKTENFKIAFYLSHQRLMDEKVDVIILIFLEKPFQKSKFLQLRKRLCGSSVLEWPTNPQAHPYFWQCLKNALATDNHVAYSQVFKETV
A further test has as its target human TLR9 (Homo sapiens (Human), UniProt Q9NR96). Briefly: TLR9 inhibition reporter assay (HEK-Blue cells, SEAP reporter, ODN2006 stimulation).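 Also: compounds tested over 0.05 nM to 50 µM, 22 h incubation, inhibition taken as SEAP signal drop from agonist plus DMSO wells toward a known inhibitor control.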
[1] abbreviates: read-out: TLR8 IC50, HEK-Blue cells overexpressing human TLR8, R848 15.9 μM.
Where [2] appears, read: read-out: TLR9 IC50, HEK-Blue cells overexpressing human TLR9, ODN2006 5 nM.

Chain of human TLR9 (Q9NR96 26-1032): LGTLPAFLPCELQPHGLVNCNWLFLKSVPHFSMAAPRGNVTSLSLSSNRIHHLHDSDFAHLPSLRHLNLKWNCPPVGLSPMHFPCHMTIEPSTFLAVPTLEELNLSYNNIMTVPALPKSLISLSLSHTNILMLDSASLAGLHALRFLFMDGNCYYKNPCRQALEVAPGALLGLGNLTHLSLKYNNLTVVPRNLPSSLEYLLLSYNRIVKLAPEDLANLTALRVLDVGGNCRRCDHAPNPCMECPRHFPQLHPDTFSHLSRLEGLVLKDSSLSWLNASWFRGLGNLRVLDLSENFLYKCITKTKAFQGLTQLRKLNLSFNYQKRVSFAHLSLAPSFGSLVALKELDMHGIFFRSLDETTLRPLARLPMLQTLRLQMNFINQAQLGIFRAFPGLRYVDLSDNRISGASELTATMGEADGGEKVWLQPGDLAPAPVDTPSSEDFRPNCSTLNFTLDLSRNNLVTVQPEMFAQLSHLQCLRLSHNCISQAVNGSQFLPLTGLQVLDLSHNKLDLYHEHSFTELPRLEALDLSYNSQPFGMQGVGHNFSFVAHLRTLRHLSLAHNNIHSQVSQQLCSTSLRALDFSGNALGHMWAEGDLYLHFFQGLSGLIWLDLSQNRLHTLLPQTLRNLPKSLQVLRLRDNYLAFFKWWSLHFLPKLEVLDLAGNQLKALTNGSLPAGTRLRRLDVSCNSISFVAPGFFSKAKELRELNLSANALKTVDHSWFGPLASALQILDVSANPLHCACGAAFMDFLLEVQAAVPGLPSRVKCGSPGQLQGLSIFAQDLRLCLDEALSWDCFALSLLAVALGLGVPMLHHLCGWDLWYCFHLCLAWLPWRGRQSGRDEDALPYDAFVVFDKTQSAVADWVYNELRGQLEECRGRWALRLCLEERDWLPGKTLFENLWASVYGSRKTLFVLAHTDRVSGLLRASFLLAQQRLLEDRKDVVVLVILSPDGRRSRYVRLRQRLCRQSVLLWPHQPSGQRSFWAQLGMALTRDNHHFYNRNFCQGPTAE

A word on the IC50: it is the concentration at which inhibition is half-maximal. With `Cc1cc(-c2[nH]c3ccc(C4CCN(C(=O)Cn5nnnc5C)CC4)cc3c2C(C)C)cc(C)n1` [Example 159, 1-(4-(2-(2,6-dimethylpyridin-4-yl)-3-isopropyl-1H-indol-5-yl)piperidin-1-yl)-2-(5-methyl-1H-tetrazol-1-yl)ethan-1-one], the IC50 at human TLR8 (setting [1]) is 0.0472 µM; against human TLR7, 0.0048 µM; at human TLR9 (setting [2]) it was 24.4 µM.

`Cc1cc(-c2[nH]c3ccc(C4CCN(CC5CN(Cc6ccccc6)CCO5)CC4)cc3c2C(C)C)cc(C)n1` (stereo not drawn) [Example 320, 4-benzyl-2-((4-(2-(2,6-dimethylpyridin-4-yl)-3-isopropyl-1H-indol-5-yl)piperidin-1-yl)methyl)morpholine]: the IC50 was found to be 0.0218 µM on human TLR8 (setting [1]), 0.0182 µM at human TLR7 and 0.192 µM at human TLR9 (setting [2]).

`CCCCN(CCO)CC(=O)N1CCC(c2ccc3[nH]c(-c4cc(C)nc(C)c4)c(C(C)C)c3c2)CC1` [Example 414, 2-(butyl(2-hydroxyethyl)amino)-1-(4-(2-(2,6-dimethylpyridin-4-yl)-3-isopropyl-1H-indol-5-yl)piperidin-1-yl)ethan-1-one]: the IC50 at human TLR8 (setting [1]) was 0.0168 µM; against human TLR7 it was 0.0024 µM; on human TLR9 (setting [2]), 0.924 µM.

Consider `CCNC(=O)CN1CCC(c2ccc3[nH]c(-c4cc(C)nc(C)c4)c(C(C)C)c3c2)CC1` [Example 235, 2-(4-(2-(2,6-dimethylpyridin-4-yl)-3-isopropyl-1H-indol-5-yl)piperidin-1-yl)-N-ethylacetamide], for which the IC50 on human TLR8 (TLR8 IC50, HEK-Blue cells overexpressing human TLR8, R848 15.9 μM) worked out at 0.0141 µM; against human TLR7, 0.0052 µM; against human TLR9 (TLR9 IC50, HEK-Blue cells overexpressing human TLR9, ODN2006 5 nM) it was 0.965 µM.

Take `CCc1c(-c2ccnc(C)c2)[nH]c2ccc(C3CCN(C(=O)CCC4CCNCC4)CC3)cc12` [Example 632, 1-(4-(3-ethyl-2-(2-methylpyridin-4-yl)-1H-indol-5-yl)piperidin-1-yl)-3-(piperidin-4-yl)propan-1-one]: the IC50 at human TLR8 (setting [1]) is 0.0358 µM; at human TLR7 it was 0.0918 µM; at human TLR9 (setting [2]), 0.795 µM.

On to `CCC(CC)NC(=O)CN1CCC(c2ccc3[nH]c(-c4cc(C)nc(C)c4)c(C(C)C)c3c2)CC1` [Example 220, 2-(4-(2-(2,6-dimethylpyridin-4-yl)-3-isopropyl-1H-indol-5-yl)piperidin-1-yl)-N-(pentan-3-yl)acetamide], for which the IC50 stood at 0.036 µM at human TLR8 (setting [1]), 0.0139 µM against human TLR7 and 1.3 µM on human TLR9 (setting [2]).

For `Cc1cc(-c2[nH]c3ccc(C4CCN(CC(=O)N5CCOC[C@H]5CO)CC4)cc3c2C(C)C)cc(C)n1` [Example 304, (R)-2-(4-(2-(2,6-dimethylpyridin-4-yl)-3-isopropyl-1H-indol-5-yl)piperidin-1-yl)-1-(3-(hydroxymethyl)morpholino)ethan-1-one], the IC50 was 0.0426 µM at human TLR8 (setting [1]), 0.0103 µM against human TLR7 and 0.441 µM at human TLR9 (setting [2]).

As for `COC(=O)C1CC(N2CCC(c3ccc4[nH]c(-c5ccnc(C)c5)c(C(C)C)c4c3)CC2)CCN1` (stereo not drawn) [Example 704, methyl 4-(3-isopropyl-2-(2-methylpyridin-4-yl)-1H-indol-5-yl)-[1,4′-bipiperidine]-2′-carboxylate], the IC50 stood at 0.0041 µM on human TLR8 (setting [1]), 0.0209 µM on human TLR7 and 0.551 µM on human TLR9 (setting [2]).

In the case of `Cc1cc(-c2[nH]c3ccc(C4CCN(CC5COC5)CC4)cc3c2C(C)C)c(F)cn1` [Example 646, 2-(5-fluoro-2-methylpyridin-4-yl)-3-isopropyl-5-(1-(oxetan-3-ylmethyl)piperidin-4-yl)-1H-indole], the values for the IC50 at human TLR8 (setting [1]), against human TLR7 and on human TLR9 (setting [2]) were 0.0048 µM, 0.012 µM and 5.85 µM, respectively.

Take `Cc1cc(-c2[nH]c3ccc(C4CCN(C(=O)CN5C(C)CCC5C)CC4)cc3c2C(C)C)cc(C)n1` (stereo not drawn) [Example 368, 1-(4-(2-(2,6-dimethylpyridin-4-yl)-3-isopropyl-1H-indol-5-yl)piperidin-1-yl)-2-(2,5-dimethylpyrrolidin-1-yl)ethan-1-one]: the IC50 at human TLR8 (setting [1]) is 0.021 µM; against human TLR7 it was 0.0045 µM; on human TLR9 (setting [2]) it was 0.742 µM.

These data come from US10660877B2 (BRISTOL-MYERS SQUIBB COMPANY, priority 2016, dated 2020).
